Measured values published in patent US20230125667A1, “NOVEL TDZD ANALOGS AS AGENTS THAT DELAY, PREVENT, OR REVERSE AGE-ASSOCIATED DISEASES AND AS ANTI-CANCER AND ANTILEUKEMIC AGENTS” (United States Government as represented by the Department …, priority 2020, published 2023).

Key:
TK-10 = experiment: NCI-60 growth inhibition: TK-10 (Renal Cancer); type: cell-based, human
PC-3 = experiment: NCI-60 growth inhibition: PC-3 (Prostate Cancer); type: cell-based, human
OVCAR-8 = experiment: NCI-60 growth inhibition: OVCAR-8 (Ovarian Cancer); type: cell-based, human
786-0 = experiment: NCI-60 growth inhibition: 786-0 (Renal Cancer); type: cell-based, human
BT-549 = experiment: NCI-60 growth inhibition: BT-549 (Breast Cancer); type: cell-based, human
NCI-H460 = experiment: NCI-60 growth inhibition: NCI-H460 (Non-Small-Cell Lung Cancer); type: cell-based, human
HT29 = experiment: NCI-60 growth inhibition: HT29 (Colon Cancer); type: cell-based, human
SNB-75 = experiment: NCI-60 growth inhibition: SNB-75 (CNS Cancer); type: cell-based, human
HOP-92 = experiment: NCI-60 growth inhibition: HOP-92 (Non-Small-Cell Lung Cancer); type: cell-based, human
U251 = experiment: NCI-60 growth inhibition: U251 (CNS Cancer); type: cell-based, human
MOLT-4 = experiment: NCI-60 growth inhibition: MOLT-4 (Leukemia); type: cell-based, human
HCT-116 = experiment: NCI-60 growth inhibition: HCT-116 (Colon Cancer); settings: HCT-116 (Colon Cancer)
SK-MEL-2 = experiment: NCI-60 growth inhibition: SK-MEL-2 (Melanoma); type: cell-based, human
IGROV1 = experiment: NCI-60 growth inhibition: IGROV1 (Ovarian Cancer); type: cell-based, human
SW-620 = experiment: NCI-60 growth inhibition: SW-620 (Colon Cancer); type: cell-based, human
SR = experiment: NCI-60 growth inhibition: SR (Leukemia); type: cell-based, human
MCF7 = experiment: NCI-60 growth inhibition: MCF7 (Breast Cancer); type: cell-based, human
SK-MEL-28 = experiment: NCI-60 growth inhibition: SK-MEL-28 (Melanoma); type: cell-based, human
MDA-MB-435 = experiment: NCI-60 growth inhibition: MDA-MB-435 (Melanoma); type: cell-based, human
LOX IMVI = experiment: NCI-60 growth inhibition: LOX IMVI (Melanoma); type: cell-based, human
UACC-257 = experiment: NCI-60 growth inhibition: UACC-257 (Melanoma); type: cell-based, human
HS 578T = experiment: NCI-60 growth inhibition: HS 578T (Breast Cancer); type: cell-based, human
MDA-MB-231/ATCC = experiment: NCI-60 growth inhibition: MDA-MB-231/ATCC (Breast Cancer); type: cell-based, human
NCI-H522 = experiment: NCI-60 growth inhibition: NCI-H522 (Non-Small-Cell Lung Cancer); settings: NCI-H522 (Non-Small-Cell Lung Cancer)
SK-MEL-5 = experiment: NCI-60 growth inhibition: SK-MEL-5 (Melanoma); type: cell-based, human
SF-539 = experiment: NCI-60 growth inhibition: SF-539 (CNS Cancer); type: cell-based, human
RPMI-8226 = experiment: NCI-60 growth inhibition: RPMI-8226 (Leukemia); type: cell-based, human
HL-60(TB) = experiment: NCI-60 growth inhibition: HL-60(TB) (Leukemia); type: cell-based, human; settings: HL-60(TB) (Leukemia); read-out: GI50
UACC-62 = experiment: NCI-60 growth inhibition: UACC-62 (Melanoma); type: cell-based, human
OVCAR-3 = experiment: NCI-60 growth inhibition: OVCAR-3 (Ovarian Cancer); type: cell-based, human
EKVX = experiment: NCI-60 growth inhibition: EKVX (Non-Small-Cell Lung Cancer); type: cell-based, human
K-562 = experiment: NCI-60 growth inhibition: K-562 (Leukemia); type: cell-based, human
OVCAR-5 = experiment: NCI-60 growth inhibition: OVCAR-5 (Ovarian Cancer); type: cell-based, human
RXF 393 = experiment: NCI-60 growth inhibition: RXF 393 (Renal Cancer); type: cell-based, human
M14 = experiment: NCI-60 growth inhibition: M14 (Melanoma); type: cell-based, human
COLO 205 = experiment: NCI-60 growth inhibition: COLO 205 (Colon Cancer); type: cell-based, human
SNB-19 = experiment: NCI-60 growth inhibition: SNB-19 (CNS Cancer); type: cell-based, human
UO-31 = experiment: NCI-60 growth inhibition: UO-31 (Renal Cancer); type: cell-based, human
MDA-MB-468 = experiment: NCI-60 growth inhibition: MDA-MB-468 (Breast Cancer); type: cell-based, human; settings: MDA-MB-468 (Breast Cancer); read-out: GI50
HCT-15 = experiment: NCI-60 growth inhibition: HCT-15 (Colon Cancer); type: cell-based, human
MALME-3M = experiment: NCI-60 growth inhibition: MALME-3M (Melanoma); type: cell-based, human
T-47D = experiment: NCI-60 growth inhibition: T-47D (Breast Cancer); type: cell-based, human
SN12C = experiment: NCI-60 growth inhibition: SN12C (Renal Cancer); type: cell-based, human
CCRF-CEM = experiment: NCI-60 growth inhibition: CCRF-CEM (Leukemia); type: cell-based, human
ACHN = experiment: NCI-60 growth inhibition: ACHN (Renal Cancer); type: cell-based, human
OVCAR-4 = experiment: NCI-60 growth inhibition: OVCAR-4 (Ovarian Cancer); type: cell-based, human
A498 = experiment: NCI-60 growth inhibition: A498 (Renal Cancer); type: cell-based, human
DU-145 = experiment: NCI-60 growth inhibition: DU-145 (Prostate Cancer); type: cell-based, human
CAKI-1 = experiment: NCI-60 growth inhibition: CAKI-1 (Renal Cancer); type: cell-based, human
NCI-H23 = experiment: NCI-60 growth inhibition: NCI-H23 (Non-Small-Cell Lung Cancer); type: cell-based, human
SF-268 = experiment: NCI-60 growth inhibition: SF-268 (CNS Cancer); type: cell-based, human
[1] = system: MV4-11 cell line (myelomonocytic leukemia); settings: MV4-11 cells, 24 h, MMB-TDZD analogs (Table 2)

What does the source list for C=C1C(=O)O[C@H]2[C@H]1CC/C(COC(=O)NCc1ccc(Cn3c(=O)sn(CCCl)c3=O)cc1)=C\CC[C@@]1(C)O[C@@H]21 [BSK-140]?
GI50 (TK-10): 1770 nM; GI50 (PC-3): 8090 nM; GI50 (OVCAR-8): 2040 nM; GI50 (786-0): 1790 nM; GI50 (BT-549): 1450 nM; GI50 (NCI-H460): 5100 nM; GI50 (HT29): 2160 nM; GI50 (SNB-75): 7650 nM; GI50 (HOP-92): 1500 nM; GI50 (U251): 6790 nM; GI50 (MOLT-4): 1850 nM; GI50 (HCT-116): 1620 nM; GI50 (SK-MEL-2): 10600 nM; GI50 (IGROV1): 2500 nM; GI50 (SW-620): 1170 nM; GI50 (SR): 1480 nM; GI50 (MCF7): 1910 nM; GI50 (SK-MEL-28): 1740 nM; GI50 (MDA-MB-435): 1740 nM; GI50 (LOX IMVI): 1690 nM; GI50 (UACC-257): 1850 nM; GI50 (HS 578T): 12100 nM; GI50 (MDA-MB-231/ATCC): 1890 nM; GI50 (NCI-H522): 1380 nM; GI50 (SK-MEL-5): 1700 nM; GI50 (SF-539): 1820 nM; GI50 (RPMI-8226): 2370 nM; GI50 (HL-60(TB)): 1910 nM; GI50 (UACC-62): 1860 nM; GI50 (OVCAR-3): 1530 nM; GI50 (EKVX): 1990 nM; GI50 (K-562): 2070 nM; GI50 (OVCAR-5): 1970 nM; GI50 (RXF 393): 1180 nM; GI50 (M14): 1820 nM; GI50 (COLO 205): 1840 nM; GI50 (SNB-19): 11900 nM; GI50 (UO-31): 1650 nM; GI50 (MDA-MB-468): 1780 nM; GI50 (HCT-15): 1850 nM; GI50 (MALME-3M): 1720 nM; GI50 (T-47D): 1970 nM; GI50 (SN12C): 2010 nM; GI50 (CCRF-CEM): 1730 nM; GI50 (ACHN): 1540 nM; GI50 (OVCAR-4): 1920 nM; GI50 (A498): 11500 nM; GI50 (DU-145): 1720 nM; GI50 (CAKI-1): 1760 nM; GI50 (NCI-H23): 2180 nM; GI50 (SF-268): 3730 nM; LD50, 7AAD (μM) 24 h ([1]; 7AAD): 4.42 µM; LD50, Alamar blue (μM) 24 h ([1]; Alamar blue): 1.50 µM; LD50, YOPRO (μM) 24 h ([1]; YOPRO): 2.88 µM
